pKi: −log10 of the molar value.

Assay [1] concerns the target Thymidylate synthase (Escherichia coli K-12, UniProt P0A884). Kind of assay: Inhibition of Escherichia coli thymidylate synthase A.
The target of assay [2] is Thymidylate synthase (Homo sapiens, UniProt P04818).
Description: Inhibition of human thymidylate synthase A
For assay [3], the target named is T1, Dihydrofolate reductase (Homo sapiens, UniProt P00374).
T1 sequence (P00374 whole entry): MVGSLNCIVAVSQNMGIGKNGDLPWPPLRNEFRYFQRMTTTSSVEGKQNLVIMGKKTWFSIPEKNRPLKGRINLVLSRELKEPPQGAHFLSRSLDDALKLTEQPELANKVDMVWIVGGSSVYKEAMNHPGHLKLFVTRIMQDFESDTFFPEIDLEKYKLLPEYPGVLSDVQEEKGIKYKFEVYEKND
Put plainly: Inhibition of human DHFR.

Thymidylate synthase (Homo sapiens, UniProt P04818), sequence (P04818 whole entry): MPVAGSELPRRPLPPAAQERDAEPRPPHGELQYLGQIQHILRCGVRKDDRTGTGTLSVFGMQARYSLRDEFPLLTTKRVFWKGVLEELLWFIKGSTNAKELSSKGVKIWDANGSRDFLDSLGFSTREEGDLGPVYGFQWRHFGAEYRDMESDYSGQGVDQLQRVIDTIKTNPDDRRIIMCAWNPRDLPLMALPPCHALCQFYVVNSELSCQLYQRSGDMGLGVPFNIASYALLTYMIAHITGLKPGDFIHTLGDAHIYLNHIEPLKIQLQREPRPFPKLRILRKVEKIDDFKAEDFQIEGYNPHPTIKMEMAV
Thymidylate synthase (Escherichia coli K-12, UniProt P0A884), sequence (P0A884 whole entry): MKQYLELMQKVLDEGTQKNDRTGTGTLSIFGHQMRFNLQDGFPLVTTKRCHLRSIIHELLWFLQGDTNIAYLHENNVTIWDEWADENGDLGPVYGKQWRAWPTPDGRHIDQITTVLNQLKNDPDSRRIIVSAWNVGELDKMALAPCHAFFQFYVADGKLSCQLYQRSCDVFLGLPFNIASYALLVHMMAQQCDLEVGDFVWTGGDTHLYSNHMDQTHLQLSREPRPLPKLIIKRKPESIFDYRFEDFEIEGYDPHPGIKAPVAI

For `O=C1OCc2cccc3cccc1c23`, the pKi (as a rule, −log10 of the Ki, conventionally taken in molar units) in assay [1] was less than 3.52; in assay [2], 4.33.

Take `N#CC(C#N)=c1c(=O)c2cccc3cccc1c32`: the pKi in assay [1] is less than 3.53; in assay [2], less than 3.51. As to `Cn1cc(-c2ccc(S(=O)(=O)Nc3cc4c5c(cccc5c3)C(=O)OC4=O)s2)cc1C(F)(F)F`, the pKi in assay [1] is 5.72. Take `O=C1Oc2cccc3cccc1c23`: the negative-log Ki (pKi) was less than 3.58 in assay [1] and 5.38 in assay [2]. Turning to `O=C1Sc2cccc3cccc1c23`, the pKi was less than 3.71 in assay [1] and 5.51 in assay [2]. Take `O=C1C(=O)c2ccc(Oc3ccc([N+](=O)[O-])cc3)c3cccc1c23`: the pKi in assay [1] was less than 3.99; in assay [2], less than 4.01. For `O=C1/C(=N/c2ccccc2)c2cccc3cccc1c23` the same measures were less than 3.53 and less than 3.51. Take `Cc1ccc2c3c(cccc13)C(=O)CC2`: the values for the negative-log Ki (pKi) in assay [1] and in assay [2] were less than 3.53 and 5.51, respectively. As for `CC1(C)C(=O)c2cccc3cccc(c23)C1=O`, the pKi in assay [1] is less than 3.23; in assay [2], 4.48. On to `O=C1OC(c2ccccc2)(c2ccccc2)c2cccc3cccc1c23`, for which the pKi in assay [1] is less than 3.53; in assay [2], less than 3.51. `O=C1OC(=O)c2ccc(Cl)c3cccc1c23` gave a pKi in assay [1] of 3.98. For the compound `O=C(O)c1ccc2c3c(cccc13)C(=O)OC2=O`, the pKi in assay [1] is 4.57. As for `O=C1OC(=O)c2ccc(S(=O)(=O)O)c3cccc1c23`, the values for the pKi in assay [1] and in assay [2] were less than 3.11 and less than 3.08, respectively.

On to `O=C1OC(=O)c2ccc(SCCO)c3cccc1c23`, for which the results for the pKi in assay [1] and in assay [2] were less than 3.35 and less than 3.32, respectively.

As for `CCOC(=O)CSc1ccc2c3c(cccc13)C(=O)OC2=O`, in assay [1], the pKi is less than 3.23.

Turning to `Nc1ccc2c3c(cccc13)C(=O)OC2=O`, the pKi was less than 3.82 in assay [1] and less than 3.80 in assay [2]. Take `O=C1OC(=O)c2cc([N+](=O)[O-])cc3cccc1c23`: the pKi in assay [1] is less than 3.71; in assay [2], less than 3.69. For `Nc1cc2c3c(cccc3c1)C(=O)OC2=O`, the pKi in assay [1] was 5.17; in assay [2], less than 3.39.

For `O=C(Nc1cc2c3c(cccc3c1)C(=O)OC2=O)c1cccc([N+](=O)[O-])c1`, the pKi in assay [1] was 5.14; in assay [3], less than 3.96. Consider `O=C(Nc1cc2c3c(cccc3c1)C(=O)OC2=O)c1ccc([N+](=O)[O-])cc1`, for which the pKi in assay [1] is 4.77. In the case of `Nc1ccc(C(=O)Nc2cc3c4c(cccc4c2)C(=O)OC3=O)cc1`, the results for the pKi in assay [1] and in assay [2] were 4.67 and less than 3.08, respectively. For `O=C(Nc1cc2c3c(cccc3c1)C(=O)OC2=O)c1ccc(C(F)(F)F)cc1`, the negative logarithm of the Ki (pKi) in assay [1] was 5.19; in assay [2], less than 3.69.

`O=C(Nc1cc2c3c(cccc3c1)C(=O)OC2=O)c1cccc(C(F)(F)F)c1`: in assay [1], the negative logarithm of the Ki (pKi) was 5.36.

In turn, `O=C(Nc1cc2c3c(cccc3c1)C(=O)OC2=O)c1ccc(Cl)c([N+](=O)[O-])c1` had a pKi in assay [1] of 5.40. As to `O=C(Nc1cc2c3c(cccc3c1)C(=O)OC2=O)c1ccc([N+](=O)[O-])o1`, the pKi in assay [1] is 5.17. Same read-out and setting: for `O=C(Cc1cccs1)Nc1cc2c3c(cccc3c1)C(=O)OC2=O` the value was 5.28.

With `O=C(Nc1cc2c3c(cccc3c1)C(=O)OC2=O)c1sc2ccccc2c1Cl`, the pKi is 5.19 in assay [1], less than 3.39 in assay [2] and less than 4.26 in assay [3]. In turn, `COC(=O)CCC(=O)Nc1cc2c3c(cccc3c1)C(=O)OC2=O` had a pKi in assay [1] of 5.15. Consider `O=C1OC(=O)c2cc(NS(=O)(=O)c3ccccc3)cc3cccc1c23`, for which, in assay [1], the pKi was 5.38. With `O=C1OC(=O)c2cc(NS(=O)(=O)c3cccc([N+](=O)[O-])c3)cc3cccc1c23`, in assay [1], the pKi was 5.68. For the compound `O=C1OC(=O)c2cc(NS(=O)(=O)c3ccc([N+](=O)[O-])cc3)cc3cccc1c23`, the pKi in assay [1] was 5.92. Compared with the last compound, the pKi is 0.24 log units higher. On the same count and under the same terms, for `O=C1OC(=O)c2cc(NS(=O)(=O)c3cccs3)cc3cccc1c23` the value was 5.66. On to `O=C1OC(=O)c2cc(NS(=O)(=O)c3ccc(C(F)(F)F)cc3[N+](=O)[O-])cc3cccc1c23`, for which, in assay [1], the pKi was 5.89.

`O=C1OC(=O)c2cc(NS(=O)(=O)c3ccc(S(=O)(=O)c4ccccc4)s3)cc3cccc1c23` had a pKi in assay [1] of 5.92. For the compound `O=C1OC(=O)c2cc(NS(=O)(=O)c3cc(Cl)sc3Cl)cc3cccc1c23`, the pKi in assay [1] is 5.34.

`O=C1OC(=O)c2cc(NS(=O)(=O)c3cccc4ccccc34)cc3cccc1c23`: in assay [1], the pKi is 5.96. This pKi lies 0.62 log units higher than the previous one. The same measure, in the same setting: with `O=C1OC(=O)c2cc(NS(=O)(=O)c3cccc4cccnc34)cc3cccc1c23` the figure was 5.54; with `O=C1OC(=O)c2cc(NS(=O)(=O)c3cccc4nsnc34)cc3cccc1c23`, 6.05.

`O=C(Nc1cc2c3c(cccc3c1)C(=O)OC2=O)c1ccc2c(c1)OCO2` had a pKi in assay [1] of 5.13. This pKi is 0.92 log units lower than that of the compound before.

Regarding `O=C(/C=C/c1ccccc1Cl)Nc1cc2c3c(cccc3c1)C(=O)OC2=O`, the pKi is 4.49 in assay [1] and less than 3.21 in assay [2]. On to `O=C(/C=C/c1cccc(C(F)(F)F)c1)Nc1cc2c3c(cccc3c1)C(=O)OC2=O`, for which the pKi was 4.97 in assay [1] and less than 3.69 in assay [2]. Take `Cc1onc(-c2ccccc2Cl)c1C(=O)Nc1cc2c3c(cccc3c1)C(=O)OC2=O`: the values for the pKi in assay [1] and in assay [2] were 4.35 and less than 3.08, respectively.

Consider `Cc1onc(-c2c(F)cccc2Cl)c1C(=O)Nc1cc2c3c(cccc3c1)C(=O)OC2=O`, for which the pKi was 5.21 in assay [1] and less than 3.48 in assay [3]. The compound `O=C1OC(=O)c2cc(NS(=O)(=O)/C=C/c3ccccc3)cc3cccc1c23` showed a pKi in assay [1] of 6.52. Still for that read-out and setting: with `O=C1OC(=O)c2cccc3cccc1c23` [1,8-NAPHTHALIC ANHYDRIDE] the figure was less than 3.53.

(Values after ChEMBL document CHEMBL2321847, “Ligand-based discovery of N-(1,3-dioxo-1H,3H-benzo[de]isochromen-5-yl)-carboxamide and sulfonamide derivatives as thymidylate synthase A inhibitors” (Bioorg Med Chem Lett, 2013).)
